# From patent publication US5045222A, “Use of triacylated ethanolamines as liquid, water-miscible peroxide activators” (Hoechst Aktiengesellschaft, priority 1988, dated 1991)
# Key:
# [1] = Determination of the water solubility of activators; type: physicochemical; settings: for Water solubility / miscibility with water (words): in words, temperature not stated
# Procedure: The water solubility of N,N,O-triacetylethanolamine (TAEA) and ethylidene benzoate acetate (EBA) was determined by known methods.
# [2] = background discussion; cited from earlier work
# [3] = Perhydrolysis rate of dissolved activator (titration of total active oxygen and peracid); settings: for time required for 90% conversion of activator: predissolved activator; for Perhydrolysis rate / release of peracid: in words, with hydrogen peroxide or percompounds
# Procedure: The experimental determination of the perhydrolysis rate of the activators TAEA (triacetylethanolamine), TAED (tetraacetylethylenediamine) and isonobs (sodium isononanoyloxybenzenesulfonate) was carried out under wash conditions in a 2 1 beaker in a thermostat. An electrical stirrer ensured uniform stirring of a 2 percent strength solution of an IEC standard detergent composition, to which perborate had been added together with 20 ml of a cherry juice solution as a bleachable stain.
# The activators were predissolved in a little water and added to the abovementioned temperature controlled washing liquor. At each set time interval (1-5 minutes) a 50 ml sample was removed and titrated for total active oxygen and peracid.
# pH dependence of perhydrolysis of dissolved bleach activators at 22° C.; time required [min] for 90% conversion of activator: […]
# [4] = Wash tests in Launder-O-meter at 60° C., tea stain
# [5] = Washing tests in Launder-O-meter at room temperature, tea stain; settings: 25° C.
compound,measurement,setting,value
"CC(=O)OC(C)OC(=O)c1ccccc1 (stereo not shown) [EBA, ethylidene benzoate acetate]",Water solubility,[1]; 23° C.,700 µg/mL
same,Water solubility,[1]; 37° C.,800 µg/mL
same,"Solubility in water (words, prior-art activator)",[2],limited solubility in water
"CC(CC(=O)Oc1ccc(S(=O)(=O)[O-])cc1)CC(C)(C)C.[Na+] (stereo not shown) [Isonobs, sodium isononanoyloxybenzenesulfonate]",time required for 90% conversion of activator,"[3]; pH 9, 22° C.",> 30 min
same,time required for 90% conversion of activator,"[3]; pH 10, 22° C.",11 min
same,time required for 90% conversion of activator,"[3]; pH 11, 22° C.",1.5 min
"CC(=O)OCCN(C(C)=O)C(C)=O [TAEA, N,N,O-triacetylethanolamine]","Water solubility (infinite, unit not given)",[1]; 23° C.,.infin.
same,"Water solubility (infinite, unit not given)",[1]; 37° C.,.infin.
same,Water solubility / miscibility with water (words),[1],complete miscibility of the compound with water
same,Water solubility / miscibility with water (words),[1]; listed as triacetylethanolamine,has the best water solubility and is miscible with water in any proportion
same,Perhydrolysis rate / release of peracid,[3],"releases one mole of peracetic acid very rapidly, in fact as rapidly as predissolved TAED"
same,Perhydrolysis rate / release of peracid,[3]; listed as Triacetylethanolamine (TAEA),readily reacts in aqueous solution with hydrogen peroxide or inorganic persalts to form peracetic acid
same,time required for 90% conversion of activator,"[3]; pH 9, 22° C.",12 min
same,time required for 90% conversion of activator,"[3]; pH 10, 22° C.",7 min
same,time required for 90% conversion of activator,"[3]; pH 11, 22° C.",1 min
same,bleaching performance,[4]; tea and red wine stains,superior in bleaching performance to previously known EDA and to non-liquid DALEA
same,bleaching effect,[5]; tea and red wine stains,superior bleaching effect
"CC(=O)N(CCN(C(C)=O)C(C)=O)C(C)=O [TAED, tetraacetylethylenediamine]",time required for 90% conversion of activator,"[3]; pH 9, 22° C.",15 min
same,time required for 90% conversion of activator,"[3]; pH 10, 22° C.",7 min
same,time required for 90% conversion of activator,"[3]; pH 11, 22° C.",1 min
sodium perborate [PB],Reflectance values,"[4]; tea stain, 30 minutes, 25 mg active oxygen per liter, 1.5 g IEC basic washing powder per liter",62.9
same,Reflectance,"[5]; tea stain, 15 minutes, 3% activator and 10% sodium perborate",52.8
